Source: patent US20200131196A1 (Mount Tam Therapeutics, Inc., priority 2017, published 2020)
Several values for one entry are separate records, joined by “and”; a condition that tells them apart may be missing. Equal values may be shown once. Read-outs that look alike come from different tables or passages of the source.

Key:
[1] = Whole blood concentrations in mice after IP dosing (LC-MS/MS); format: in vivo, mouse; settings: for approximate mean concentration in whole blood: up to six hours following administration
Method: Shown below are whole blood concentrations following administration of the compound of Formula II to mice. The compound of Formula II was administered to mice at 2 mg/kg or 10 mg/kg and the concentration of the compound in whole blood determined. These determinations were made using protein precipitation, liquid chromatography (LC), and mass spectrometry (MS/MS). Ten μl aliquots of whole blood and matrix calibration standards were distributed in a 96-well plate; 10 μl aliquots of blank matrix for matrix blanks and control blanks were included as controls. Ten μl of water was added to each sample followed by vortexing. One hundred sixty […] of internal standard was added to each sample except the matrix blanks; 160 μl 70:30 water:acetonitrile (ACN) was added to matrix blanks. This was followed by a […]. One hundred fifty μl of the resultant supernatant was then transferred to a new 96-well plate and the samples blown to dryness at 35° C. The resultant product was then reconstituted with 90 μl ACN.

[2] = mouse, in vivo, ip
Source text: Tumor growth was monitored daily. […] Significance was set at p≤0.05.

CO[C@H]1C[C@@H]2CC[C@@H](C)[C@@](O)(O2)C(=O)C(=O)N2CCCC[C@H]2C(=O)O[C@H]([C@H](C)C[C@H]2C[C@H]3C[C@@H]2C[C@@H]3O)CC(=O)[C@H](C)/C=C(\C)[C@@H](O)[C@@H](OC)C(=O)[C@H](C)C[C@H](C)/C=C/C=C/C=C/1C [Formula II, C37-[(1R,2S,4R,5S)-5-hyhroxybicyclo[2.2.1]heptane] rapamycin]
Formula II Concentrations in Mouse Whole Blood, individual animals ([1]; 2 mg/kg IP QD × 3 days, Day 2, 1.00 hrs, animals 7, 8, 9): 481 ng/mL and 208 ng/mL and 524 ng/mL | Formula II Concentrations in Mouse Whole Blood, individual animals ([1]; 2 mg/kg IP QD × 3 days, Day 2, 2.00 hrs, animals 7, 8, 9): 501 ng/mL and 233 ng/mL and 570 ng/mL | Formula II Concentrations in Mouse Whole Blood, individual animals ([1]; 2 mg/kg IP QD × 3 days, Day 2, 6.00 hrs, animals 7, 8, 9): 632 ng/mL and 552 ng/mL | Formula II Concentrations in Mouse Whole Blood, individual animals ([1]; 2 mg/kg IP QD × 3 days, Day 2, 24.0 hrs, animals 7, 8, 9): 15.3 ng/mL and 80.6 ng/mL and 35.2 ng/mL | Formula II Concentrations in Mouse Whole Blood, Mean ([1]; 2 mg/kg IP QD × 3 days, Day 3, 1.00 hrs): 651 ng/mL | Formula II Concentrations in Mouse Whole Blood, individual animals ([1]; 2 mg/kg IP QD × 3 days, Day 3, 1.00 hrs, animals 7, 8, 9): 726 ng/mL and 600 ng/mL | Formula II Concentrations in Mouse Whole Blood, Mean ([1]; 2 mg/kg IP QD × 3 days, Day 3, 2.00 hrs): 501 ng/mL | Formula II Concentrations in Mouse Whole Blood, individual animals ([1]; 2 mg/kg IP QD × 3 days, Day 3, 2.00 hrs, animals 7, 8, 9): 478 ng/mL and 489 ng/mL and 535 ng/mL | Formula II Concentrations in Mouse Whole Blood, Mean ([1]; 2 mg/kg IP QD × 3 days, Day 3, 6.00 hrs): 588 ng/mL | Formula II Concentrations in Mouse Whole Blood, individual animals ([1]; 2 mg/kg IP QD × 3 days, Day 3, 6.00 hrs, animals 7, 8, 9): 416 ng/mL and 745 ng/mL and 604 ng/mL | Formula II Concentrations in Mouse Whole Blood, Mean ([1]; 2 mg/kg IP QD × 3 days, Day 3, 24.0 hrs): 41.9 ng/mL | Formula II Concentrations in Mouse Whole Blood, individual animals ([1]; 2 mg/kg IP QD × 3 days, Day 3, 24.0 hrs, animals 7, 8, 9): 17.6 ng/mL and 59.6 ng/mL and 48.6 ng/mL | concentrations in whole blood over time (in words) ([1]; 2 mg/kg or 10 mg/kg IP QD for three days): sufficient concentrations in whole blood | Formula II Concentrations in Mouse Whole Blood, Mean ([1]; 10 mg/kg IP QD × 3 days, Day 1, 1.00 hrs): 657 ng/mL | Formula II Concentrations in Mouse Whole Blood, individual animals ([1]; 10 mg/kg IP QD × 3 days, Day 1, 1.00 hrs, animals 10, 11, 12): 560 ng/mL and 641 ng/mL and 769 ng/mL | Formula II Concentrations in Mouse Whole Blood, Mean ([1]; 10 mg/kg IP QD × 3 days, Day 1, 2.00 hrs): 722 ng/mL | Formula II Concentrations in Mouse Whole Blood, individual animals ([1]; 10 mg/kg IP QD × 3 days, Day 1, 2.00 hrs, animals 10, 11, 12): 793 ng/mL and 869 ng/mL and 503 ng/mL | Formula II Concentrations in Mouse Whole Blood, Mean ([1]; 10 mg/kg IP QD × 3 days, Day 1, 6.00 hrs): 1165 ng/mL | Formula II Concentrations in Mouse Whole Blood, individual animals ([1]; 10 mg/kg IP QD × 3 days, Day 1, 6.00 hrs, animals 10, 11, 12): 1000 ng/mL and 1950 ng/mL and 544 ng/mL | Formula II Concentrations in Mouse Whole Blood, Mean ([1]; 10 mg/kg IP QD × 3 days, Day 1, 24.0 hrs): 204 ng/mL | Formula II Concentrations in Mouse Whole Blood, individual animals ([1]; 10 mg/kg IP QD × 3 days, Day 1, 24.0 hrs, animals 10, 11, 12): 222 ng/mL and 181 ng/mL and 210 ng/mL | Formula II Concentrations in Mouse Whole Blood, Mean ([1]; 10 mg/kg IP QD × 3 days, Day 2, 1.00 hrs): 2309 ng/mL | Formula II Concentrations in Mouse Whole Blood, individual animals ([1]; 10 mg/kg IP QD × 3 days, Day 2, 1.00 hrs, animals 10, 11, 12): 3410 ng/mL and 2970 ng/mL and 546 ng/mL | Formula II Concentrations in Mouse Whole Blood, Mean ([1]; 10 mg/kg IP QD × 3 days, Day 2, 2.00 hrs): 3323 ng/mL | Formula II Concentrations in Mouse Whole Blood, individual animals ([1]; 10 mg/kg IP QD × 3 days, Day 2, 2.00 hrs, animals 10, 11, 12): 3670 ng/mL and 3930 ng/mL and 2370 ng/mL | Formula II Concentrations in Mouse Whole Blood, Mean ([1]; 10 mg/kg IP QD × 3 days, Day 2, 6.00 hrs): 2256 ng/mL | Formula II Concentrations in Mouse Whole Blood, individual animals ([1]; 10 mg/kg IP QD × 3 days, Day 2, 6.00 hrs, animals 10, 11, 12): 2770 ng/mL and 3390 ng/mL and 609 ng/mL | Formula II Concentrations in Mouse Whole Blood, Mean ([1]; 10 mg/kg IP QD × 3 days, Day 2, 24.0 hrs): 179 ng/mL | Formula II Concentrations in Mouse Whole Blood, individual animals ([1]; 10 mg/kg IP QD × 3 days, Day 2, 24.0 hrs, animals 10, 11, 12): 123 ng/mL and 336 ng/mL and 78.0 ng/mL | Formula II Concentrations in Mouse Whole Blood, Mean ([1]; 10 mg/kg IP QD × 3 days, Day 3, 1.00 hrs): 2204 ng/mL | Formula II Concentrations in Mouse Whole Blood, individual animals ([1]; 10 mg/kg IP QD × 3 days, Day 3, 1.00 hrs, animals 10, 11, 12): AQL and 3420 ng/mL and 987 ng/mL | Formula II Concentrations in Mouse Whole Blood, Mean ([1]; 10 mg/kg IP QD × 3 days, Day 3, 2.00 hrs): 3199 ng/mL | Formula II Concentrations in Mouse Whole Blood, individual animals ([1]; 10 mg/kg IP QD × 3 days, Day 3, 2.00 hrs, animals 10, 11, 12): 5170 ng/mL and 3650 ng/mL and 777 ng/mL | Formula II Concentrations in Mouse Whole Blood, Mean ([1]; 10 mg/kg IP QD × 3 days, Day 3, 6.00 hrs): 2317 ng/mL | Formula II Concentrations in Mouse Whole Blood, individual animals ([1]; 10 mg/kg IP QD × 3 days, Day 3, 6.00 hrs, animals 10, 11, 12): 3330 ng/mL and 2890 ng/mL and 730 ng/mL | Formula II Concentrations in Mouse Whole Blood, Mean ([1]; 10 mg/kg IP QD × 3 days, Day 3, 24.0 hrs): 223 ng/mL | Formula II Concentrations in Mouse Whole Blood, individual animals ([1]; 10 mg/kg IP QD × 3 days, Day 3, 24.0 hrs, animals 10, 11, 12): 223 ng/mL and 323 ng/mL and 124 ng/mL | approximate mean concentration in whole blood ([1]; about 2 mg/kg): 383 to 651 ng/mL | approximate mean concentration in whole blood ([1]; about 10 mg/kg): 657 to 3323 ng/mL | concentration at 24 h ([1]; mouse, whole blood, intraperitoneal, 2 mg/kg, 2 mg/kg IP QD × 3 days, Day 1, 24.0 hrs, animals 7, 8, 9, read-out: Formula II Concentrations in Mouse Whole Blood, individual animals): 12.2 ng/mL | concentration at 24 h ([1]; mouse, whole blood, intraperitoneal, 2 mg/kg, 2 mg/kg IP QD × 3 days, Day 1, 24.0 hrs, read-out: Formula II Concentrations in Mouse Whole Blood, Mean): 15.1 ng/mL | concentration at 1 h ([1]; mouse, whole blood, intraperitoneal, 2 mg/kg, 2 mg/kg IP QD × 3 days, Day 2, 1.00 hrs, read-out: Formula II Concentrations in Mouse Whole Blood, Mean): 404 ng/mL | concentration at 2 h ([1]; mouse, whole blood, intraperitoneal, 2 mg/kg, 2 mg/kg IP QD × 3 days, Day 2, 2.00 hrs, read-out: Formula II Concentrations in Mouse Whole Blood, Mean): 435 ng/mL | concentration at 6 h ([1]; mouse, whole blood, intraperitoneal, 2 mg/kg, 2 mg/kg IP QD × 3 days, Day 2, 6.00 hrs, animals 7, 8, 9, read-out: Formula II Concentrations in Mouse Whole Blood, individual animals): 553 ng/mL | concentration at 6 h ([1]; mouse, whole blood, intraperitoneal, 2 mg/kg, 2 mg/kg IP QD × 3 days, Day 2, 6.00 hrs, read-out: Formula II Concentrations in Mouse Whole Blood, Mean): 579 ng/mL | concentration at 24 h ([1]; mouse, whole blood, intraperitoneal, 2 mg/kg, 2 mg/kg IP QD × 3 days, Day 2, 24.0 hrs, read-out: Formula II Concentrations in Mouse Whole Blood, Mean): 43.7 ng/mL | concentration at 1 h ([1]; mouse, whole blood, intraperitoneal, 2 mg/kg, 2 mg/kg IP QD × 3 days, Day 3, 1.00 hrs, animals 7, 8, 9, read-out: Formula II Concentrations in Mouse Whole Blood, individual animals): 628 ng/mL | concentration at 24 h ([1]; mouse, whole blood, intraperitoneal, 2 mg/kg, about 2 mg/kg, at about 24 hours following administration, read-out: approximate mean concentration in whole blood): 15 to 43.7 ng/mL | concentration at 24 h ([1]; mouse, whole blood, intraperitoneal, 10 mg/kg, about 10 mg/kg, at about 24 hours following administration, read-out: approximate mean concentration in whole blood): 21 to 138 ng/mL | Body Wt. % Δ from Baseline, Mean [2]: 14.68% | Body Wt. % Δ from Baseline, Median [2]: 14.64% | Change in Body Weight Day 1-30, Mean [2]: 3.13 | Change in Body Weight Day 1-30, Median [2]: 3.08 | Day 30 Body Weight, Mean [2]: 24.37 g | Day 30 Body Weight, Median [2]: 24.12 g
